How the values were obtained:
[1] = biological target: T1, TFAM (mitochondrial transcription factor A) (Homo sapiens, UniProt Q00059); experiment: streptavidin-sepharose pull-down from cell extracts, immunoblot ([…]); type: cell-based
T1 construct: endogenous TFAM in HeLa ρ+ and HCT116 cell extracts
T1 sequence (Q00059 43-246): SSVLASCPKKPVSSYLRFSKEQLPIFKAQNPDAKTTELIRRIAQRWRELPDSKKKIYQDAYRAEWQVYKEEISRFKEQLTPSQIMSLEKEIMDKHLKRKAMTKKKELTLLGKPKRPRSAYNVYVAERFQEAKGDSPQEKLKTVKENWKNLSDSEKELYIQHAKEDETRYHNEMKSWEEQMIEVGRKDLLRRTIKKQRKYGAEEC

[2] = biological target: T2, Lon (human mitochondrial Lon protease) (Homo sapiens, UniProt P36776); experiment: ADP-Glo ATPase assay with purified Lon; about […] activity left at […]; type: biochemical
T2 construct: gene LONP1
T2 sequence (P36776 68-959): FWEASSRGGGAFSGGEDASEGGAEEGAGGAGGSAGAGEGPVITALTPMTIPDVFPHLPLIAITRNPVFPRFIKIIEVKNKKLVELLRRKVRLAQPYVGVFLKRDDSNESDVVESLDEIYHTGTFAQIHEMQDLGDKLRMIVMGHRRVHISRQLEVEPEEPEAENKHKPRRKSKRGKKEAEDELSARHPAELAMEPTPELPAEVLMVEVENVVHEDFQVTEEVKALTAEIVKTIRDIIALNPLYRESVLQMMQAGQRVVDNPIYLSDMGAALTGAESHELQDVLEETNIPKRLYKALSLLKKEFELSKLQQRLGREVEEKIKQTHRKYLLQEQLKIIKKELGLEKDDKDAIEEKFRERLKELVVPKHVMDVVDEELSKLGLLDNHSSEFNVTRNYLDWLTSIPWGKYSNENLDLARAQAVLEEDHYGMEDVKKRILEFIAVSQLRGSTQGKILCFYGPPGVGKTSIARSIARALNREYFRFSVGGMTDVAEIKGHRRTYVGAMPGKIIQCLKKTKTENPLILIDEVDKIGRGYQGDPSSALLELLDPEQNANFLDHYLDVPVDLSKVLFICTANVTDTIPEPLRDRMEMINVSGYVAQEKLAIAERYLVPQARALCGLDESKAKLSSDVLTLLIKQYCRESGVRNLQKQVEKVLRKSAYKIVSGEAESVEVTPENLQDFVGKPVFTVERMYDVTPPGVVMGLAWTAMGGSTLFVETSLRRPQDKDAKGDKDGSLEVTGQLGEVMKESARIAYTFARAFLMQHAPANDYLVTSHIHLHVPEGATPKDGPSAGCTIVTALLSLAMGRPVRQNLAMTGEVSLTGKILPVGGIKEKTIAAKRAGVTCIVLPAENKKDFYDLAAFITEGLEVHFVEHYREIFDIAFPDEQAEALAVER

[3] = biological target: T3, TFAM (mitochondrial transcription factor A) (Homo sapiens, UniProt Q00059); experiment: protection of purified TFAM from degradation by purified Lon (Western blot); binding itself shown only with the biotinylated conjugate; type: biochemical
T3 sequence (Q00059 43-246): T1 sequence (Q00059 43-246)
T3 sequence (P36776 68-959 partner): T2 sequence (P36776 68-959)

Structure (SMILES): Cc1nc(C)c(COC(=O)CCCC[C@@H]2SC[C@@H]3NC(=O)N[C@@H]32)nc1C [biotinylated TMP]
- streptavidin-sepharose pull-down from cell extracts, immunoblot (10 μM) [1]: TFAM was specifically pulled down only in complexes containing biotinylated-TMP and SA-sepharose

Structure (SMILES): CC1(C)CC[C@]2(C(=O)O)CC[C@]3(C)[C@H](C(=O)C=C4[C@@]5(C)C=C(C#N)C(=O)C(C)(C)[C@@H]5CC[C@]43C)[C@@H]2C1 [CDDO, 2-cyano-3,12-dioxooleana-1,9(11)-dien-28-oic acid]
- ADP-Glo ATPase assay with purified Lon; about 10% activity left at 200 μM [2]: CDDO inhibited the ATPase activity of Lon in a dose-dependent manner

Structure (SMILES): Cc1nc(C)c(C)nc1C [TMP, 2,3,5,6-tetramethylpyrazine]
- protection of purified TFAM from degradation by purified Lon (Western blot); bin [3]: ~ 20 mM

From article PMC5434891, “Tetramethylpyrazine blocks TFAM degradation and up-regulates mitochondrial DNA copy number by interacting with TFAM” (Bioscience Reports, 2017)
